# Measured values from patent publication EP1081186A1, “Stabilized aqueous acrylamide polymer composition and photographic element containing the composition” (EASTMAN KODAK COMPANY (a New Jersey corporation), priority 1999, dated 2001).
# Assay: Inherent viscosity stability of aqueous acrylamide polymer solutions on keeping (capillary viscometer)
# Format: physicochemical
# Conditions: 0.33 % added to 15 % copolymer solution; at room temperature and at 50°C; compared with isopropanol
# Procedure: In the following examples the inherent viscosities of the solutions were measured in a capillary viscometer at a polymer concentration of 0.25 g/dl using aqueous 0.1M sodium sulfate as the solvent. The measurements were carried out at a temperature of 25 degrees C. Inherent viscosity (I.V.) is calculated as: I.V. = ln( t / t0 )/c where t is the polymer solution flow time through the capillary, t0 is the solvent flow time, and c is the polymer concentration. [formula]
# Initial Inherent Viscosities ranged from 2.00 to 2.12 dL/g. Percentage Change was defined with the following equation: %Change=(I.V.(t)-I.V.(0))/(I.V.(0))× 100 [formula] where I.V.(0) is the initial inherent viscosity and I.V.(t) is the inherent viscosity of the polymer at time t.
# Initial Inherent Viscosities range from 1.90 to 2.00 dL/g. The I.V. change is determined as previously defined.
smiles,measurement,value
CC(C)(C)c1cccc(O)c1O [t-butyl catechol],inherent viscosity stability,equal to or better than ten times the concentration of isopropanol
